Experimental data from US6784201B2, “Benzothiepines having activity as inhibitors of ileal bile acid transport and taurocholate uptake” (G.D. Searle & Company, priority 1994, dated 2004).
Counter-ions that a name gives are not always drawn. Like-named read-outs stand apart in the source and are kept apart here.

Target: T1, human IBAT (Homo sapiens, UniProt Q12908)
T1 construct: expressed in transfected cells; host or cells: Baby hamster kidney (BHK) cells, clone H14
T1 sequence (Q12908 1-348): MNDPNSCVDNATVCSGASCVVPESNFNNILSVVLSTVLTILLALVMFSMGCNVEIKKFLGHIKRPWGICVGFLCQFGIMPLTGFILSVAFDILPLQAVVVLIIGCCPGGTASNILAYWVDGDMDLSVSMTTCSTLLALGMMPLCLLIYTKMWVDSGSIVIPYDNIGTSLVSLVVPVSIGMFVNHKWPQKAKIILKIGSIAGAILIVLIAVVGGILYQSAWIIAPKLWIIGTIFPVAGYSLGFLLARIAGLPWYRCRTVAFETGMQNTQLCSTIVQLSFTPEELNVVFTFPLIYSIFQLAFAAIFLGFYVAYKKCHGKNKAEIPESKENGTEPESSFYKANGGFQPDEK
Test: In vitro assay of IBAT-mediated uptake of [14C]-taurocholate (TC) in H14 cells
Type: cell-based
Details: for IC50: read-out: Human TC IC50
Procedure: In Vitro Assay of Compounds that Inhibit IBAT-Mediated Uptake of [^14C]-Taurocholate (TC) in H14 Cells
Baby hamster kidney cells (BHK) transfected with the cDNA of human IBAT (H14 cells) are seeded at 60,000 cells/well in 96 well Top-Count tissue culture plates for assays run within in 24 hours of seeding, 30,000 cells/well for assays run within 48 hours, and 10,000 cells/well for assays run within 72 hours.
On the day of assay, the cell monolayer is gently washed once with 100 μl assay buffer (Dulbecco's Modified Eagle's medium with 4.5 g/L glucose+0.2% (w/v) fatty acid free bovine serum albumin-(FAF)BSA). To each well 50 μl of a two-fold concentrate of test compound in assay buffer is added along with 50 μl of 6 μM [^14C]-taurocholate in assay buffer (final concentration of 3 μM [^14C]-taurocholate). The cell culture plates are incubated 2 hours at 37° C. prior to gently washing each well twice with 100 μl 4° C. Dulbecco's phosphate-buffered saline (PBS) containing 0.2% (w/v) (FAF)BSA. The wells are then gently washed once with 100 μl 4° C. PBS without (FAF)BSA. To each 200 μl of liquid scintillation counting fluid is added, the plates are heat sealed and shaken for 30 minutes at room temperature prior to measuring the amount of radioactivity in each well on a Packard Top-Count instrument.

IC50	SMILES	further results
320 nM	CCCCC1(CCCC)CS(=O)(=O)c2ccc(N(C)C)cc2C(c2ccc(C(=O)O)cc2)C1O (stereo not drawn) [Example 1217]	–
140 nM	CCCCC1(CCCC)CS(=O)(=O)c2ccc(N(C)C)cc2C(c2ccccc2N(C)C)C1O (stereo not drawn) [Example 1210]	–
2 nM	CCCCC1(CCCC)CS(=O)(=O)c2ccc(N(C)C)cc2C(c2ccc(OCCOCCOCC[N+](C)(C)C)c(F)c2)C1O (stereo not drawn) [Example 1013]	–
11 nM	CCCCC1(CCCC)CS(=O)(=O)c2ccc(N(C)C)cc2C(c2ccccc2)C1O (stereo not drawn) [Example 1123]	–
500 nM	CCCCC1(CC)CS(=O)(=O)c2ccc(O)cc2C(c2cccc(O)c2)C1O (stereo not drawn) [Example 266]	–
17 nM	CCCCC1(CCCC)CS(=O)(=O)c2ccc(N(C)C)cc2C(c2ccc(O)c(F)c2)C1O (stereo not drawn) [Example 1128]	–
650 nM	CCCCC1(CCCC)CS(=O)(=O)c2ccc(O)cc2C(c2ccc(N(C)C)cc2)C1O (stereo not drawn) [Example 1191]	–
50 nM	CCCCC1(CCCC)CS(=O)(=O)c2ccc(N(C)C)cc2C(c2ccc(CBr)cc2)C1O (stereo not drawn) [Example 1236]	–
550 nM	CCCCC1(CC)CS(=O)(=O)c2ccc(N)cc2C(c2ccc(F)cc2)C1O (single isomer, unassigned) [Example 127]	–
42 nM	CCCCC1(CCCC)CS(=O)(=O)c2ccc(N(C)C)cc2C(c2ccc(OC)cc2)C1O (stereo not drawn) [Example 1208]	–
29 nM	CCCCC1(CCCC)CS(=O)(=O)c2ccc(N(C)C)cc2C(c2ccc(OCCOCCOCCOCCCl)c(F)c2)C1O (stereo not drawn) [Example 1242]	–
7.3 nM	CCCCC1(CCCC)CS(=O)(=O)c2ccc(N(C)C)cc2C(c2cccc(O)c2)C1O (stereo not drawn) [Example 1106]	–
5 nM	CCCCC1(CCCC)CS(=O)(=O)c2ccc(N(C)C)cc2C(c2ccsc2)C1O (stereo not drawn) [Example 1085]	–
19 nM	CCCCC1(CC)CS(=O)(=O)c2ccc(SC)cc2C(c2ccc(F)cc2)C1O (stereo not drawn) [Example 281]	–
5 nM	CCCCC1(CCCC)CS(=O)(=O)c2ccc(N(C)C)cc2C(c2cccc(OCCOCCOCC[n+]3ccc(CC)cc3)c2)C1O (stereo not drawn) [Example 1084]	–
–	CCCCC1(CCCC)CS(=O)(=O)c2ccc(N(C)C)cc2[C@@H](c2ccc(OCCCCC[n+]3cccc4ccccc43)cc2)[C@H]1O [Example 1412, (4R-cis)-1-[5-[4-[3,3-Dibutyl-7-(dimethylamino)-2,3,4,5-tetrahydro-4-hydroxy-1,1-dioxido-1-benzothiepin-5-yl]phenoxy]pentyl]quinolinium, methanesulfonate (Salt)]	IC50 (In Vitro Taurocholate Uptake, Table 10): 3 nM
300 nM	CCCCC1(CC)CS(=O)(=O)c2ccc(NC(=O)OCc3ccccc3)cc2C(c2ccc(OC)cc2)C1O (single isomer, unassigned) [Example 116]	–
320 nM	CCCCC1(CCCC)CS(=O)(=O)c2ccc(N(C)C)cc2C(c2cccc([N+](C)(C)C)c2)C1O (stereo not drawn) [Example 1245]	–
–	CCCCC1(CC)CS(=O)(=O)c2ccccc2C(Sc2ccccc2)C1O (single isomer, unassigned) [Example 21b, 3-Butyl-3-ethyl-4-hydroxy-5-phenylthio-2,3,4,5-tetrahydro-benzothiepine-1,1-dioxide]	In vitro % Inhibition of TC Uptake @ 100 uM (100 uM): 45%
1700 nM	CCCCC1(CCCC)CS(=O)(=O)c2ccc(N3CCN(C)CC3)cc2C(c2ccc(OC)cc2)C1O (stereo not drawn) [Example 1195]	–
100 nM	CCCCC1(CCCC)CS(=O)(=O)c2cc(Br)c(N(C)C)cc2C(c2ccccc2)C1O (stereo not drawn) [Example 1257]	–
3 nM	CCCCC1(CCCC)CS(=O)(=O)c2ccc(N(C)C)cc2C(c2ccc(OCc3cc[n+](C)cc3)c(F)c2)C1O (stereo not drawn) [Example 1051]	–
2 nM	CCCCC1(CCCC)CS(=O)(=O)c2ccc(N(C)C)cc2C(c2cccc(OCCCCC[N+](CC)(CC)CC)c2)C1O (stereo not drawn) [Example 1032]	–
210 nM	CCCCC1(CCCC)CS(=O)(=O)c2ccc(NC(C)C)cc2C(c2ccc(F)cc2)C1O (stereo not drawn) [Example 1264]	–

IC50	SMILES	further results
16 nM	CCCCC1(CCCC)CS(=O)(=O)c2ccc(N(C)C)cc2C(c2ccc(OC)c(C)c2)C1O (stereo not drawn) [Example 1240]	–
240 nM	CCCCC1(CCCC)CS(=O)(=O)c2c(NC(C)C)cccc2C(c2ccc(F)cc2)C1O (stereo not drawn) [Example 1265]	–
6 nM	CCCCC1(CCCC)CS(=O)(=O)c2ccc(N(C)C)cc2C(c2cccc(OCCOCCOCC[N+](C)(C3CCCCC3)C3CCCCC3)c2)C1O (stereo not drawn) [Example 1091]	–
47 nM	CCCCC1(CCCC)CS(=O)(=O)c2ccc(N(C)C)cc2C(c2cccc(CN(C)C)c2)C1O (stereo not drawn) [Example 1241]	–
1 nM	CCCCC1(CCCC)CS(=O)(=O)c2ccc(N(C)C)cc2C(c2cccc(OCCOCCOCC[N+](CC)(CC)CC)c2)C1O (stereo not drawn) [Example 1007]	–
4.3 nM	CCCCC1(CCCC)CS(=O)(=O)c2c(cc(N(C)C)cc2N(C)C)C(c2ccc(F)cc2)C1O (stereo not drawn) [Example 1075]	–
5 nM	CCCCC1(CCCC)CS(=O)(=O)c2ccc(N(C)C)cc2C(c2cccc(OCCOCCOCC[n+]3c(C)cc(C)cc3C)c2)C1O (stereo not drawn) [Example 1368]	–
1600 nM	CCCCC1(CCCC)CS(=O)(=O)c2ccc(N(C)C)cc2C(c2ccc(OCCOCCOCCOc3ccc(C4c5cc(N(C)C)ccc5S(=O)(=O)CC(CCCC)(CCCC)C4O)cc3F)c(F)c2)C1O (stereo not drawn) [Example 1194]	–
30 nM	CCCCC1(CCCC)CS(=O)(=O)c2ccc(N(C)C)cc2C(c2cccs2)C1O (stereo not drawn) [Example 1262]	–
24 nM	CCCCC1(CCCC)CS(=O)(=O)c2ccc(N(C)C)cc2C(c2ccc(OCCOCCSCCN(CC)CC)c(F)c2)C1O (stereo not drawn) [Example 1142]	–
18 nM	CCCCC1(CCCC)CS(=O)(=O)c2ccc(N(C)C)cc2C(c2ccc(F)c(Cl)c2)C1O (stereo not drawn) [Example 1130]	–
260 nM	CCCCC1(CC)CS(=O)(=O)c2ccc(NO)cc2C(c2ccccc2)C1O (single isomer, unassigned) [Example 1314]	–
3900 nM	CCCCC1(CC)CS(=O)(=O)c2cc(O)ccc2C(c2ccccc2)C1O (stereo not drawn) [Example 1316]	–
4 nM	CCCCC1(CCCC)CS(=O)(=O)c2ccc(NC)cc2C(c2cccc(OCCOCCOCC[n+]3cc4ccccc4cn3)c2)C1O (stereo not drawn) [Example 1061]	–
240 nM	CCCCC1(CCCC)CS(=O)(=O)c2c(F)cccc2C(c2ccc(OC)cc2)C1O (stereo not drawn) [Example 1309]	–
190 nM	CCCCC1(CCCC)CS(=O)(=O)c2c(SC)cccc2C(c2ccc(OC)cc2)C1O (stereo not drawn) [Example 1215]	–
6.8 nM	CCCCC1(CCCC)CS(=O)(=O)c2ccc(N(C)C)cc2C(c2ccc(OC)cc2)C1O (stereo not drawn) [Example 1100]	–
40 nM	CCCCC1(CCCC)CS(=O)(=O)c2c(cc(F)cc2N(C)C)C(c2ccc(F)cc2)C1O (stereo not drawn) [Example 1157]	–
62 nM	CCCCC1(CCCC)CS(=O)(=O)c2c(cc(F)cc2N(C)C)C(c2ccccc2)C1O (stereo not drawn) [Example 1230]	–
7 nM	CCCCC1(CCCC)CS(=O)(=O)c2ccc(N(C)C)cc2C(c2ccc(OCCOCCOCC[N+](C)(C)CC[N+](C)(C)C)cc2)C1O (stereo not drawn) [Example 1103]	–
4 nM	CCCCC1(CCCC)CS(=O)(=O)c2c(cccc2N(C)C)C(c2ccsc2)C1O (single isomer, unassigned) [Example 1067]	–
350 nM	CCCCC1(CCCC)CS(=O)(=O)c2ccc([N+](C)(C)C)cc2C(c2ccc(OC)cc2)C1O (stereo not drawn) [Example 1188]	–
46 nM	CCCCC1(CCCC)CS(=O)(=O)c2ccc(N)cc2[C@@H](c2ccc(F)cc2)[C@H]1O [Example 292]	–
330 nM	CCCCC1(CCCC)CS(=O)(=O)c2ccc(F)cc2C(c2cccc([N+](=O)[O-])c2)C1O (stereo not drawn) [Example 1224]	–
